In patent publication US11832638B2, “N-acyl derivatives of gamma amino-butyric acid and beta alanine as food flavouring compounds” (GIVAUDAN SA, priority 2012, dated 2023):

Key:
[1] = Chocolate milk with different fat content
Procedure: Chocolate Milk With Different Fat Content
In a chocolate milk 1.8% and 3% fat C18:2-gaba was added at 0.5 and 1 ppm.
Samples were evaluated by expert tasters. Tasters were asked to describe the samples focusing on authentic taste, mouthfeel, fullness, salivation, sweetness, juiciness, richness, long lastingness and fattiness.

Soy milk = conditions: 2 ppm, 5% sucrose, milk flavor 0.1%
Procedure: In a soy milk sweetened with 5% sucrose by weight, flavoured with a proprietary milk flavour at a dosage of 0.1%, C18:2-gaba was added at 2 ppm
Samples were evaluated by expert tasters. Tasters were asked to describe the samples focusing on authentic taste , mouthfeel, fullness, salivation, sweetness, juiciness, richness, long lastingness and fattiness.

[2] = Tasting in air expanded base with cheese seasoning; conditions: air expanded base 3% fat
Procedure: Air Expanded Base An air expanded base (Rice, wheat, Tapioca, potato, salt, sugar, modified starch), containing 3% fat and flavored with cheese seasoning containing salt, MSG, dairy, organic acids, sugars and flavor. The following compounds were added to the base at the indicated levels and the tasting results are reported: […]

[3] = Mango flavoured still beverage with different levels of juice; conditions: 1 ppm, 8% sucrose, 0.1% citric acid, mango flavor 0.05%
Procedure: Mango Flavoured Still Beverage Containing Different Levels Of Juice.
In a Mango flavoured still beverage, sweetened with 8% sucrose and containing 0.1% citric acid and 1%, 4% and 6% clear mango juice flavoured with a proprietary Mango flavour @ 0.05%, C18:2-gaba was added, as such.
All samples were evaluated by expert tasters. Tasters were asked to describe the samples focusing on authentic taste, juicy mouthfeel, enhancement, richness, juiciness, long lastingness, salivation, sweetness.
In a Mango flavoured still beverage, sweetened with 8% sucrose & containing 0.1% citric acid and 1% clear mango juice flavoured with proprietary Mango flavour @ 0.05%, C18:2-gaba was added, as such.
Base is water, 8% sucrose, 0.1% citric acid, 1% clear mango juice (very low juice %) , flavoured with Mango flavor, dosed at 0.05%
In a Mango flavoured still beverage, sweetened with 8% sucrose & containing 0.1% citric acid and 4% clear mango juice flavoured with Mango flavour @ 0.05% , C18:2-gaba and C18:2-Pro were added, as such (separate) and in combination.
Base is water, 8% sucrose, 0.1% citric acid, 4% clear mango juice (30% reduced juice), flavoured with Mango flavor, dosed at 0.05%
A Mango-flavoured still beverage, sweetened with 8% sucrose & containing 0.1% citric acid and 6% clear mango juice flavoured with Mango flavour @ 0.05%, C18:2-gaba
Base is water, 8% sucrose, 0.1% citric acid, 6% clear mango juice (full juice), flavoured with Mango flavor, dosed at 0.05%.

CCCCC/C=C\C/C=C\CCCCCCCC(=O)NCCCC(=O)O [C18:2-gaba]
description by expert tasters ([1]; 0.5 ppm, chocolate milk 1.8% fat): stronger cocoa note, more chocolate vs cocoa
description by expert tasters ([1]; 0.5 ppm, chocolate milk 3% fat): very creamy, enhanced cocoa note
description by expert tasters ([1]; 1 ppm, chocolate milk 1.8% fat): very creamy, chocolate, long-lasting creamy and chocolate taste
description by expert tasters ([1]; 1 ppm, chocolate milk 3% fat): very creamy, lasting, sweet, almost taste like chocolate ice cream
description by expert tasters (Soy milk): clean, creamy, good masking of the soy bean taste, creamy and milky
tasting result ([2]; 0.5 ppm): Increased dairy, cheese
tasting result ([2]; 1 ppm): Fatty full, cheesy, cheese crust, long lasting, cover base
description by expert tasters ([3]; 1% clear mango juice): fatty skin-like, very juicy, authentic mango, much more mouthfeel, long lasting mango taste, mouthfeel is close to the full juice product
description by expert tasters ([3]; 4% clear mango juice): fatty skin-like, very juicy, authentic mango, long lasting mango taste, more mouthfeel than the full juice product
description by expert tasters ([3]; 6% clear mango juice (full juice)): fatty skin-like, very thick juicy, authentic mango, long lasting mango taste, rich
